# Measured values reported in patent EP0622356A1, “Indoloylguanidine derivatives as inhibitors of sodium-hydrogen exchange” (SUMITOMO PHARMACEUTICALS COMPANY, LIMITED, priority 1993, dated 1994).
# Structures can show the parent of a compound that is named as a salt. Where two headings read alike, the source gives them in different places.
# What was measured:
# Na⁺/H⁺ exchanger [1] = target: T1, Na⁺/H⁺ exchanger (Rattus norvegicus, UniProt P26431); test: Inhibition of Na⁺/H⁺ exchanger activity in vitro (change in intracellular pH during acid loading); format: cell-based
# T1 construct: using the vascular smooth muscle cells isolated from the rat thoracic aorta; endogenous in cells; host or cells: primary vascular smooth muscle cells isolated from rat thoracic aorta
# T1 sequence (P26431 whole entry): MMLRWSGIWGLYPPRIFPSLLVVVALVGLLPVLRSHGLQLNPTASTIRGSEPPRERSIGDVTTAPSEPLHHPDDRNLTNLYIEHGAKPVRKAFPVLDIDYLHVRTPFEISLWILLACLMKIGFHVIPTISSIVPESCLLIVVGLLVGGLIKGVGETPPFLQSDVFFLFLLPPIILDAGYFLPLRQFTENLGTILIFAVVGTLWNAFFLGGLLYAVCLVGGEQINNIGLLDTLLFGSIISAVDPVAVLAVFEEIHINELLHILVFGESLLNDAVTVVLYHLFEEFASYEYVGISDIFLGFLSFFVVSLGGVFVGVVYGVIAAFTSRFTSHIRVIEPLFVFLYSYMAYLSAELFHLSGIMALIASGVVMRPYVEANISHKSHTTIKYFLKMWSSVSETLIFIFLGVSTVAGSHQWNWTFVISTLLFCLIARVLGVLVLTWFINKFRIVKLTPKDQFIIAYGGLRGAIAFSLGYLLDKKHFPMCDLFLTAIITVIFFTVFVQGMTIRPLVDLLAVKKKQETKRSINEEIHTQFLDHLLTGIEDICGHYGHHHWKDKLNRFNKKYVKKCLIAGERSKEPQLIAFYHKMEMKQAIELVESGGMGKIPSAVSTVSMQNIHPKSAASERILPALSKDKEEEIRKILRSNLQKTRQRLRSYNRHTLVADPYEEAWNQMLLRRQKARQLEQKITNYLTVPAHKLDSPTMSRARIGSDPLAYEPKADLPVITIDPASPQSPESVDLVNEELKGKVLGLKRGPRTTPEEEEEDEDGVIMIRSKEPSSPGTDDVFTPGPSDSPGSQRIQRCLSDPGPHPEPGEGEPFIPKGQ
# Description: That is, inhibition of the Na⁺/H⁺ exchanger activity was evaluated by the change in intracellular pH during acid loading, using the vascular smooth muscle cells isolated from the rat thoracic aorta.
# Na⁺/H⁺ exchanger [2] = target: T1, Na⁺/H⁺ exchanger; test: Inhibition of Na⁺/H⁺ exchanger activity in vitro (change in cell viability during acid loading); format: cell-based; conditions: minimum effective concentration, vascular smooth muscle cells isolated from the rat thoracic aorta
# Description: The experiment was performed by modifying the method of Mungre et al. described in Exp. Cell Res., 193, 236 (1991). That is, inhibition of the Na⁺/H⁺ exchanger activity was evaluated by the change in cell viability during acid loading, using the vascular smooth muscle cells isolated from the rat thoracic aorta.
# The compounds of the present invention shown in Examples were evaluated by the minimum effective concentration (MEC) for the inhibition of the Na⁺/H⁺ exchanger activity.
# [3] = test system: arrhythmia induced by reperfusion after rat coronary artery occlusion; test: Inhibition of ischemia- and reperfusion-induced arrhythmia in vivo
# Description: The experiment was performed by modifying the method of Crome et al. described in J. Cardiovasc. […] That is, the prevention of arrhythmia induced by reperfusion after rat coronary artery occlusion was evaluated by the incidence of ventricular tachycardia and ventricular fibrillation as well as the mortality.
# [4] = vascular smooth muscle cells isolated from the rat thoracic aorta, change in intracellular pH during acid loading, read-out: IC₅₀
smiles,measurement,setting,value
"NC(N)=NC(=O)c1nc(Cl)c(N2CCCCCC2)nc1N [5-Hexamethylene amiloride, reference compound]",IC50,Na⁺/H⁺ exchanger [1]; [4],140 nM
same,Inhibition of Na^+/H^+ Exchanger MEC,Na⁺/H⁺ exchanger [2],0.3 µM
"CC(C)Oc1cccc2c1cc(C(=O)NC(=N)N)n2C [Example 58, 4-Isopropoxy-1-methy1-2-indoloylguanidine hydrochloride]",Inhibition of Na^+/H^+ Exchanger MEC,Na⁺/H⁺ exchanger [2],0.3 µM
"Cn1c(C(=O)N=C(N)N)cc2c(Cl)ccc(OCCCN)c21 [Example 118, 7-(3-Aminopropoxy)-4-chloro-1-methyl-2-indoloylguanidine hydrochloride]",IC50,Na⁺/H⁺ exchanger [1]; [4],10 nM
"CN(C)c1nc(N)c(C(=O)N=C(N)N)nc1Cl [Dimethyl amiloride, reference compound]",IC50,Na⁺/H⁺ exchanger [1],600 nM
same,Inhibition of Na^+/H^+ Exchanger MEC,Na⁺/H⁺ exchanger [2],3.0 µM
"Cn1c(C(=O)N=C(N)N)cc2ccccc21 [Example 1, 1-methyl-2-indoloylguanidine hydrochloride]",IC50,Na⁺/H⁺ exchanger [1]; [4],58 nM
same,Incidence of Ventricular Fibrillation,[3]; dose 0.1 mg/kg,10%
same,Incidence of Ventricular Tachycardia,[3]; dose 0.1 mg/kg,70%
same,Mortality,[3]; dose 0.1 mg/kg,10%
same,Incidence of Ventricular Fibrillation,[3]; dose 0.3 mg/kg,0%
same,Incidence of Ventricular Tachycardia,[3]; dose 0.3 mg/kg,50%
same,Mortality,[3]; dose 0.3 mg/kg,0%
"CCN(c1nc(N)c(C(=O)NC(=N)N)nc1Cl)C(C)C [EIPA, 5-N-ethyl-N-isopropyl amiloride, reference compound]",Incidence of Ventricular Fibrillation,[3]; dose 0.3 mg/kg,56%
same,Incidence of Ventricular Tachycardia,[3]; dose 0.3 mg/kg,100%
same,Mortality,[3]; dose 0.3 mg/kg,44%
same,Incidence of Ventricular Fibrillation,[3]; dose 1 mg/kg,0%
same,Incidence of Ventricular Tachycardia,[3]; dose 1 mg/kg,43%
same,Mortality,[3]; dose 1 mg/kg,0%
"Cn1c(C(=O)N=C(N)N)cc2c(C(F)(F)F)cccc21 [Example 29, 1-Methyl-4-trifluoromethyl-2-indoloylguanidine hydrochloride]",IC50,Na⁺/H⁺ exchanger [1]; [4],0.9 nM
"COc1cccc2c1cc(C(=O)N=C(N)N)n2C [Example 22, 4-Methoxy-1-methyl-2-indoloylguanidine hydrochloride]",IC50,Na⁺/H⁺ exchanger [1]; [4],2100 nM
"Cn1c(C(=O)N=C(N)N)cc2cccc(Cl)c21 [Example 8, 7-Chloro-1-methyl-2-indoloylguanidine hydrochloride]",IC50,Na⁺/H⁺ exchanger [1]; [4],50 nM
"Cn1c(C(=O)NC(=N)N)cc2c(F)cccc21 [Example 55, 4-Fluoro-1-methyl-2-indoloylguanidine hydrochloride]",IC50,Na⁺/H⁺ exchanger [1]; [4],20 nM
